Source: patent publication US7138541B2, “Surface coating agents” (SurModics, Inc., priority 1999, dated 2006)

Test system: coagulation cascade (intrinsic and common pathways of coagulation)
Experiment: Partial thromboplastin time (PTT) test of coating agents
Format: biochemical
Conditions: for Extension of control PTT (in words): versus the respective solvent control, both concentrations tested
Experimental: A useful test in determining the hemocompatibility of a reagent is the partial thromboplastin time (PTT) test. The PTT is a test of the intrinsic (factors VIII, IX, XI, and XII) and common (fibrinogen, prothrombin, factors V and X) pathways of coagulation. A mixture of plasma and phospholipid platelet substitute (rabbit brain cephalin) is recalcified and the time required for the appearance of fibrin strands measured.
The PTT was tested to determine whether Compound I or Compound II have the ability to extend the control PTT. A test tube of rabbit brain cephalin (Sigma #RBC) in 0.85% NaCl and a test tube of 0.02 M CaCl2 was brought to 37° C. in a water bath. Dade Ci-trol coagulation control lyophilized plasma (Dade International, Inc., product no. 34224-10) was reconstituted in sterile deionized water. In 10×75 mm glass test tubes, 100 μl reconstituted plasma and 100 μl RBC were mixed and incubated at 37° C. in a water bath for 5 minutes. Next, 50 μl of sample (deionized water, a photocrosslinkable polyvinylpyrrolidone (available from SurModics, Inc., product no. PVO5), or Compound I or II) was added and mixed. While simultaneously starting a stop watch, 100 μl of 0.02 M CaCl2 was added to initiate the clotting cascade. After 40 seconds had passed, the test tubes were shaken lightly, observed for fibrin formation, and the number of seconds was recorded.
All samples were tested in duplicate. The appropriate control PTT, depending upon what solvent in which the reagent was dissolved, was subtracted from the average PTT for the reagent to give the time the control PTT was extended.

| Compound | Extension of control PTT (in words) | Extension of 50% IPA control PTT (higher of the two final concentrations tested, 50% IPA control) |
| --- | --- | --- |
| O=C(c1ccccc1)c1ccc(COc2cc(S(=O)(=O)[O-])cc(S(=O)(=O)[O-])c2OCc2ccc(C(=O)c3ccccc3)cc2)cc1.[K+].[K+] [Compound I, 4,5-bis(4-benzoylphenylmethyleneoxy) benzene-1,3-disulfonic acid disodium salt] | considerably extend |  |
| O=C(c1ccccc1)c1ccc(COc2cc(S(=O)(=O)[O-])c(OCc3ccc(C(=O)c4ccccc4)cc3)cc2S(=O)(=O)[O-])cc1.[K+].[K+] [Compound II, 2,5-bis(4-benzoylphenylmethyleneoxy) benzene-1,4-disulfonic acid dipotassium salt] | considerably extend | 1 h |
